According to patent publication US9992994B2, “Agricultural and detergent compositions containing a tertiary amide as adjuvant or as surfactant” (Taminco BVBA, priority 2011, dated 2018):

Test: compatibility of diquats with anionic surfactant in water
Format: physicochemical
Design: key: Cl. = Clear; Blu. = Bluish; Visc. = Viscous; Prec. = Precipitate; Turb. = Turbid
Details: 1 wt % total surfactant in water, ambient temperature, 100% diquat
Description: To delimit the applicability of the Diquats the compatibility in different ratios with LES was tested in the temperature range between 0° C. and 90° C. […] With a hydrocarbon tail of up to 10 carbon atoms no precipitation was observed and with increasing chain length only a very narrow region of mixing ratios led to an insoluble deposit.

| SMILES | Compatibility observation, 100% of Diquat |
| --- | --- |
| CCCCCCCC(=O)N(CCC[N+](C)(C)C)CCC[N+](C)(C)C.[Cl-].[Cl-] [C8MeCl] | Cl. |
| CCCCCCCC[N+](C)(C)CCCN(CCC[N+](C)(C)CCCCCCCC)C(=O)CCCCCCC.[Br-].[Br-] [C8OcBr] | Cl. |
| CCCCCCCCCC(=O)N(CCC[N+](C)(C)C)CCC[N+](C)(C)C.[Cl-].[Cl-] [C10MeCl] | Cl. |
| CCCCCCCCCCCC(=O)N(CCC[N+](C)(C)C)CCC[N+](C)(C)C.[Cl-].[Cl-] [C12MeCl] | Cl. |
| CCCCCCCCCCCCCC(=O)N(CCC[N+](C)(C)C)CCC[N+](C)(C)C.[Cl-].[Cl-] [C14MeCl] | Cl. |
| CCCCCCCCCCCCCCCC(=O)N(CCC[N+](C)(C)C)CCC[N+](C)(C)C.[Cl-].[Cl-] [C16MeCl] | Cl. |
| CCCCCCCCCCCCCCCCCC(=O)N(CCC[N+](C)(C)C)CCC[N+](C)(C)C.[Cl-].[Cl-] [C18MeCl] | Cl. |

Same assay, conditions: mixture with Sodium Laureth Sulfate, 1 wt % total surfactant in water, ambient temperature, 10% diquat

| SMILES | Compatibility observation, 10% of Diquat |
| --- | --- |
| CCCCCCCC(=O)N(CCC[N+](C)(C)C)CCC[N+](C)(C)C.[Cl-].[Cl-] [C8MeCl] | Cl. |
| CCCCCCCC[N+](C)(C)CCCN(CCC[N+](C)(C)CCCCCCCC)C(=O)CCCCCCC.[Br-].[Br-] [C8OcBr] | Cl. |
| CCCCCCCCCC(=O)N(CCC[N+](C)(C)C)CCC[N+](C)(C)C.[Cl-].[Cl-] [C10MeCl] | Cl. |
| CCCCCCCCCCCC(=O)N(CCC[N+](C)(C)C)CCC[N+](C)(C)C.[Cl-].[Cl-] [C12MeCl] | Cl. |
| CCCCCCCCCCCCCC(=O)N(CCC[N+](C)(C)C)CCC[N+](C)(C)C.[Cl-].[Cl-] [C14MeCl] | Cl. |
| CCCCCCCCCCCCCCCC(=O)N(CCC[N+](C)(C)C)CCC[N+](C)(C)C.[Cl-].[Cl-] [C16MeCl] | Cl. |
| CCCCCCCCCCCCCCCCCC(=O)N(CCC[N+](C)(C)C)CCC[N+](C)(C)C.[Cl-].[Cl-] [C18MeCl] | Cl. |

Same assay, conditions: mixture with Sodium Laureth Sulfate, 1 wt % total surfactant in water, ambient temperature, 20% diquat

| SMILES | Compatibility observation, 20% of Diquat |
| --- | --- |
| CCCCCCCC(=O)N(CCC[N+](C)(C)C)CCC[N+](C)(C)C.[Cl-].[Cl-] [C8MeCl] | Cl. |
| CCCCCCCC[N+](C)(C)CCCN(CCC[N+](C)(C)CCCCCCCC)C(=O)CCCCCCC.[Br-].[Br-] [C8OcBr] | Cl. |
| CCCCCCCCCC(=O)N(CCC[N+](C)(C)C)CCC[N+](C)(C)C.[Cl-].[Cl-] [C10MeCl] | Cl. |
| CCCCCCCCCCCC(=O)N(CCC[N+](C)(C)C)CCC[N+](C)(C)C.[Cl-].[Cl-] [C12MeCl] | Cl. |
| CCCCCCCCCCCCCC(=O)N(CCC[N+](C)(C)C)CCC[N+](C)(C)C.[Cl-].[Cl-] [C14MeCl] | Cl. |
| CCCCCCCCCCCCCCCC(=O)N(CCC[N+](C)(C)C)CCC[N+](C)(C)C.[Cl-].[Cl-] [C16MeCl] | Cl. |
| CCCCCCCCCCCCCCCCCC(=O)N(CCC[N+](C)(C)C)CCC[N+](C)(C)C.[Cl-].[Cl-] [C18MeCl] | Cl. |

Same assay, conditions: mixture with Sodium Laureth Sulfate, 1 wt % total surfactant in water, ambient temperature, 30% diquat

| SMILES | Compatibility observation, 30% of Diquat |
| --- | --- |
| CCCCCCCC(=O)N(CCC[N+](C)(C)C)CCC[N+](C)(C)C.[Cl-].[Cl-] [C8MeCl] | Cl. |
| CCCCCCCC[N+](C)(C)CCCN(CCC[N+](C)(C)CCCCCCCC)C(=O)CCCCCCC.[Br-].[Br-] [C8OcBr] | Blu. |
| CCCCCCCCCC(=O)N(CCC[N+](C)(C)C)CCC[N+](C)(C)C.[Cl-].[Cl-] [C10MeCl] | Cl. |
| CCCCCCCCCCCC(=O)N(CCC[N+](C)(C)C)CCC[N+](C)(C)C.[Cl-].[Cl-] [C12MeCl] | Cl. |
| CCCCCCCCCCCCCC(=O)N(CCC[N+](C)(C)C)CCC[N+](C)(C)C.[Cl-].[Cl-] [C14MeCl] | Cl. |
| CCCCCCCCCCCCCCCC(=O)N(CCC[N+](C)(C)C)CCC[N+](C)(C)C.[Cl-].[Cl-] [C16MeCl] | Visc. |
| CCCCCCCCCCCCCCCCCC(=O)N(CCC[N+](C)(C)C)CCC[N+](C)(C)C.[Cl-].[Cl-] [C18MeCl] | Cl. |

Same assay, conditions: mixture with Sodium Laureth Sulfate, 1 wt % total surfactant in water, ambient temperature, 40% diquat

| SMILES | Compatibility observation, 40% of Diquat |
| --- | --- |
| CCCCCCCC(=O)N(CCC[N+](C)(C)C)CCC[N+](C)(C)C.[Cl-].[Cl-] [C8MeCl] | Cl. |
| CCCCCCCC[N+](C)(C)CCCN(CCC[N+](C)(C)CCCCCCCC)C(=O)CCCCCCC.[Br-].[Br-] [C8OcBr] | Blu. |
| CCCCCCCCCC(=O)N(CCC[N+](C)(C)C)CCC[N+](C)(C)C.[Cl-].[Cl-] [C10MeCl] | Cl. |
| CCCCCCCCCCCC(=O)N(CCC[N+](C)(C)C)CCC[N+](C)(C)C.[Cl-].[Cl-] [C12MeCl] | Blu. |
| CCCCCCCCCCCCCC(=O)N(CCC[N+](C)(C)C)CCC[N+](C)(C)C.[Cl-].[Cl-] [C14MeCl] | Prec. |
| CCCCCCCCCCCCCCCC(=O)N(CCC[N+](C)(C)C)CCC[N+](C)(C)C.[Cl-].[Cl-] [C16MeCl] | Prec. |
| CCCCCCCCCCCCCCCCCC(=O)N(CCC[N+](C)(C)C)CCC[N+](C)(C)C.[Cl-].[Cl-] [C18MeCl] | Turb. |

Same assay, conditions: mixture with Sodium Laureth Sulfate, 1 wt % total surfactant in water, ambient temperature, 50% diquat

| SMILES | Compatibility observation, 50% of Diquat |
| --- | --- |
| CCCCCCCC(=O)N(CCC[N+](C)(C)C)CCC[N+](C)(C)C.[Cl-].[Cl-] [C8MeCl] | Cl. |
| CCCCCCCC[N+](C)(C)CCCN(CCC[N+](C)(C)CCCCCCCC)C(=O)CCCCCCC.[Br-].[Br-] [C8OcBr] | Turb. |
| CCCCCCCCCC(=O)N(CCC[N+](C)(C)C)CCC[N+](C)(C)C.[Cl-].[Cl-] [C10MeCl] | Turb. |
| CCCCCCCCCCCC(=O)N(CCC[N+](C)(C)C)CCC[N+](C)(C)C.[Cl-].[Cl-] [C12MeCl] | Cl. |
| CCCCCCCCCCCCCC(=O)N(CCC[N+](C)(C)C)CCC[N+](C)(C)C.[Cl-].[Cl-] [C14MeCl] | Cl. |
| CCCCCCCCCCCCCCCC(=O)N(CCC[N+](C)(C)C)CCC[N+](C)(C)C.[Cl-].[Cl-] [C16MeCl] | Cl. |
| CCCCCCCCCCCCCCCCCC(=O)N(CCC[N+](C)(C)C)CCC[N+](C)(C)C.[Cl-].[Cl-] [C18MeCl] | Visc. |

Same assay, conditions: mixture with Sodium Laureth Sulfate, 1 wt % total surfactant in water, ambient temperature, 60% diquat

| SMILES | Compatibility observation, 60% of Diquat |
| --- | --- |
| CCCCCCCC(=O)N(CCC[N+](C)(C)C)CCC[N+](C)(C)C.[Cl-].[Cl-] [C8MeCl] | Cl. |
| CCCCCCCC[N+](C)(C)CCCN(CCC[N+](C)(C)CCCCCCCC)C(=O)CCCCCCC.[Br-].[Br-] [C8OcBr] | Turb. |
| CCCCCCCCCC(=O)N(CCC[N+](C)(C)C)CCC[N+](C)(C)C.[Cl-].[Cl-] [C10MeCl] | Cl. |
| CCCCCCCCCCCC(=O)N(CCC[N+](C)(C)C)CCC[N+](C)(C)C.[Cl-].[Cl-] [C12MeCl] | Cl. |
| CCCCCCCCCCCCCC(=O)N(CCC[N+](C)(C)C)CCC[N+](C)(C)C.[Cl-].[Cl-] [C14MeCl] | Cl. |
| CCCCCCCCCCCCCCCC(=O)N(CCC[N+](C)(C)C)CCC[N+](C)(C)C.[Cl-].[Cl-] [C16MeCl] | Cl. |
| CCCCCCCCCCCCCCCCCC(=O)N(CCC[N+](C)(C)C)CCC[N+](C)(C)C.[Cl-].[Cl-] [C18MeCl] | Cl. |

Same assay, conditions: mixture with Sodium Laureth Sulfate, 1 wt % total surfactant in water, ambient temperature, 70% diquat

| SMILES | Compatibility observation, 70% of Diquat |
| --- | --- |
| CCCCCCCC(=O)N(CCC[N+](C)(C)C)CCC[N+](C)(C)C.[Cl-].[Cl-] [C8MeCl] | Cl. |
| CCCCCCCC[N+](C)(C)CCCN(CCC[N+](C)(C)CCCCCCCC)C(=O)CCCCCCC.[Br-].[Br-] [C8OcBr] | Turb. |
| CCCCCCCCCC(=O)N(CCC[N+](C)(C)C)CCC[N+](C)(C)C.[Cl-].[Cl-] [C10MeCl] | Cl. |
| CCCCCCCCCCCC(=O)N(CCC[N+](C)(C)C)CCC[N+](C)(C)C.[Cl-].[Cl-] [C12MeCl] | Cl. |
| CCCCCCCCCCCCCC(=O)N(CCC[N+](C)(C)C)CCC[N+](C)(C)C.[Cl-].[Cl-] [C14MeCl] | Cl. |
| CCCCCCCCCCCCCCCC(=O)N(CCC[N+](C)(C)C)CCC[N+](C)(C)C.[Cl-].[Cl-] [C16MeCl] | Cl. |
| CCCCCCCCCCCCCCCCCC(=O)N(CCC[N+](C)(C)C)CCC[N+](C)(C)C.[Cl-].[Cl-] [C18MeCl] | Cl. |

Same assay, conditions: mixture with Sodium Laureth Sulfate, 1 wt % total surfactant in water, ambient temperature, 80% diquat

| SMILES | Compatibility observation, 80% of Diquat |
| --- | --- |
| CCCCCCCC(=O)N(CCC[N+](C)(C)C)CCC[N+](C)(C)C.[Cl-].[Cl-] [C8MeCl] | Cl. |
| CCCCCCCC[N+](C)(C)CCCN(CCC[N+](C)(C)CCCCCCCC)C(=O)CCCCCCC.[Br-].[Br-] [C8OcBr] | Cl. |
| CCCCCCCCCC(=O)N(CCC[N+](C)(C)C)CCC[N+](C)(C)C.[Cl-].[Cl-] [C10MeCl] | Cl. |
| CCCCCCCCCCCC(=O)N(CCC[N+](C)(C)C)CCC[N+](C)(C)C.[Cl-].[Cl-] [C12MeCl] | Cl. |
| CCCCCCCCCCCCCC(=O)N(CCC[N+](C)(C)C)CCC[N+](C)(C)C.[Cl-].[Cl-] [C14MeCl] | Cl. |
| CCCCCCCCCCCCCCCC(=O)N(CCC[N+](C)(C)C)CCC[N+](C)(C)C.[Cl-].[Cl-] [C16MeCl] | Cl. |
| CCCCCCCCCCCCCCCCCC(=O)N(CCC[N+](C)(C)C)CCC[N+](C)(C)C.[Cl-].[Cl-] [C18MeCl] | Cl. |

Same assay, conditions: mixture with Sodium Laureth Sulfate, 1 wt % total surfactant in water, ambient temperature, 90% diquat

| SMILES | Compatibility observation, 90% of Diquat |
| --- | --- |
| CCCCCCCC(=O)N(CCC[N+](C)(C)C)CCC[N+](C)(C)C.[Cl-].[Cl-] [C8MeCl] | Cl. |
| CCCCCCCC[N+](C)(C)CCCN(CCC[N+](C)(C)CCCCCCCC)C(=O)CCCCCCC.[Br-].[Br-] [C8OcBr] | Cl. |
| CCCCCCCCCC(=O)N(CCC[N+](C)(C)C)CCC[N+](C)(C)C.[Cl-].[Cl-] [C10MeCl] | Cl. |
| CCCCCCCCCCCC(=O)N(CCC[N+](C)(C)C)CCC[N+](C)(C)C.[Cl-].[Cl-] [C12MeCl] | Cl. |
| CCCCCCCCCCCCCC(=O)N(CCC[N+](C)(C)C)CCC[N+](C)(C)C.[Cl-].[Cl-] [C14MeCl] | Cl. |
| CCCCCCCCCCCCCCCC(=O)N(CCC[N+](C)(C)C)CCC[N+](C)(C)C.[Cl-].[Cl-] [C16MeCl] | Cl. |
| CCCCCCCCCCCCCCCCCC(=O)N(CCC[N+](C)(C)C)CCC[N+](C)(C)C.[Cl-].[Cl-] [C18MeCl] | Cl. |

Test: not given
Details: at pH 7; 20° C.; cited from earlier work

| SMILES | log Kow |
| --- | --- |
| CC(C)N1C(=O)c2ccccc2NS1(=O)=O [Bentazone] | −0.5 |
| COc1cc(OC)nc(NC(=O)NS(=O)(=O)c2ncccc2C(=O)N(C)C)n1 [Nicosulfuron] | 0 |

Same assay, conditions: no pH given; 20° C.; cited from earlier work

| SMILES | log Kow |
| --- | --- |
| CCNc1nc(Cl)nc(NC(C)C)n1 [Atrazine] | 2.6 |
